Data taken from patent US9149450B2, “Ischemia/reperfusion protection compositions and methods of using” (priority 2007, dated 2015).

Legend:
[1] = system: rats subjected to 60% blood loss; test: Rat hemorrhagic shock, 60% blood loss (Example 3); type: in vivo
Procedure: Rats infused with ketone bodies were subjected to 60% blood loss for at least 1 hour, followed by return of the shed blood. Endpoint measures of neuroprotection were quantitative analysis of neuronal survival and apoptosis in cortex, hippocampus and cerebellum as well as neurologic function exam scores. The objective was to determine the effectiveness of the D-form of beta-hydroxybutyrate (D-BHB) in conjunction with melatonin in protecting the brain from ischemia and providing protection from reperfusion injury after blood return.
The goal of the following experiments was to maintain 60% blood loss for at least three hours using a minimal amount of fluid in order to maintain viability. Sixty-percent blood loss was calculated by using the equation: Total blood volume=Animal body weight×0.06. A bolus volume of 1 ml ischemia/reperfusion protection composition per kilogram of animal body weight was given to animals after approximately 40% blood loss. Some animals only received a single 1 ml/kg bolus, while other animals received a slow infusion (100 μl/hr) to imitate an intravenous drip of solution after the bolus was given. […]
Once rats were fully anesthesized and stabilized for a 20 min period, blood loss was begun. […] Temperature was monitored with a rectal probe. […] Animal death was recorded when blood pressure, respiration, and precordial movement ceased (see FIG. 9 for a timeline). […]

[2] = system: hibernating ground squirrels; conditions: in vivo, ip

transport into the heart during hibernation [2] | Compound | survival compared with 4 M NaCl ([1]; 60% blood loss, same osmolarity, ambient temperature drift) | survival compared with NaCl, bolus followed by infusion ([1]; bolus then 100 μl/hr infusion, p-value <0.016)
 | C[C@@H](O)CC(=O)O [D-BHB, D-beta-hydroxybutyrate] | survived longer | lived significantly longer
efficiently transported into the heart | [13CH3][C@@H](O)[13CH2]C(=O)O [^13C-D-BHB, [2,4-^13C]D-beta-hydroxybutyrate] |  | 
